The subject of the assay is formalin-induced nociceptive behaviour. Put plainly: Formalin test in mice (phase II licking/biting of the injected paw). The format is in vivo, Male CD-1 mice. The conditions noted are these: i.p.; for efficacy of analgesic effect (in words): formalin test.

SMILES strings stand for the structures.

Protocol: To assess the reliability of the efficacy and potency of the compounds and combinations tested, the nociceptive response was assessed by the formalin test. The behaviour analysed was the total time spent in licking and biting of the injected paw measured during the 15-30 min period (phase II) (Dubuisson D., et al. Pain 1977, 4, 161 and Rosland et al., Pain 1990, 42, 235).
All drugs prepared at various concentrations were dissolved in 0.5% hydroxypropyl methylcellulose in distilled water and coadministered in a volume of 10 ml/kg per mice through the intraperitoneal (i.p.) route. Control animals received the same volume of vehicle.
Male CD-1 mice weighing between 20 and 25 g (Charles River Laboratories) are used for all the experiments. The animals were housed in a temperature-controlled room (21±1° C.) with air exchange every 20 min and an automatic 12-h light/dark cycle (light from 08.00 to 20.00 h). They were fed a standard laboratory diet and tap water ad libitum until the beginning of the experiments. The experiments were performed during the light phase (09.00-15.00 h). Naive animals were used throughout.
A concentrated formalin solution was diluted with saline to the appropriate concentration (2.5%). Formalin test was performed as described in Rosland et al., Pain 1990, 42, 235, with slight modifications. 20 microliters of the formalin solution was injected subcutaneously (s.c.) into the dorsal surface of the right hind paw of the mouse, using a Hamilton microsyringe with a 301/2-gauge needle. The nociceptive behaviour (licking and/or biting) was recorded from 15 to 35 min after formalin injection as an indicator of the pain response.
The method is based on the comparison of the effect of several doses of a combination at a determined ratio with respect to the effects achieved using different doses of each of the two agents. […] The theoretical additive dose (Zadd) for a combination was then calculated and compared with the experimental ED50 of the combination (Zt) as described in Tallarida, Drug synergism 2001, 298, 865-872. […]

For the compound `COc1ccc(C(CN(C)C)C2(O)CCCCC2)cc1` (racemic) [Venlafaxine, (rac)-1-[2-dimethylamino-1-(4-methoxyphenyl)-ethyl]cyclohexanol], the “efficacy of analgesic effect (in words)” value was “full efficacy”.

`Cc1ccc(-c2cc(C(F)(F)F)nn2-c2ccc(S(N)(=O)=O)cc2)cc1` [celecoxib, 4-[5-(4-methylphenyl)-3-(trifluoromethyl)pyrazol-1-yl]benzenesulfonamide]: the “efficacy of analgesic effect (in words)” value was “ceiling effect”. In addition, the “maximum efficacy (analgesic effect)” value (formalin test (2.5% formalin s.c. into hind paw)) was found to be 45.78%.

The record behind these values is patent US20130072534A1 (LABORATORIOS DEL DR. ESTEVE, S.A., priority 2009, published 2013).
